The values that follow are results of earlier work, collected in patent US20050123615A1, “Controlled release dosage forms of azithromycin” (Pfizer Inc, priority 2003, published 2005).

For the series the following is noted: 3,995 human patients, all dose levels combined, oral.

Consider `CC[C@H]1OC(=O)[C@H](C)[C@@H](O[C@H]2C[C@@](C)(OC)[C@@H](O)[C@H](C)O2)[C@H](C)[C@@H](O[C@@H]2O[C@H](C)C[C@H](N(C)C)[C@H]2O)[C@](C)(O)C[C@@H](C)CN(C)[C@H](C)[C@@H](O)[C@]1(C)O` [azithromycin, 9a-aza-9a-methyl-9-deoxo-9a-homoerythromycin A], for which the “patients reporting GI side effects” value is 9.6%, the “patients reporting abdominal pain” value is recorded as 2.5%, the patients reporting diarrhea is on record as 3.6% and the patients reporting nausea is 2.6%.
